Literature values in patent US20080262086A1, “SUBSTITUTED ANTHRANILIC ACIDS” (AUSPEX PHARMACEUTICALS, INC., priority 2007, published 2008).

Legend:
[1] = short half-life of bumetanide, background
[2] = test system: reabsorption of sodium, potassium, and chloride; settings: times more potent than furosemide

half-life [1]: 1 to 1.5 h
SMILES: CCCCNc1cc(C(=O)O)cc(S(N)(=O)=O)c1Oc1ccccc1 [Bumetanide, 3-Butylamino-4-phenoxy-5-sulfamoyl-benzoic acid]
potency relative to furosemide [2]: approximately 40 times
